Test results taken from PubChem BioAssay (NCI).
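Where inhibition never reached the appropriate level, the endpoint shown equals the highest concentration tested. Otherwise, values were interpolated linearly from a five-concentration, 48-hour dose response in 96-well plates. Here, GI50 denotes the concentration required for 50% inhibition of growth. TGI denotes the concentration required for complete inhibition of growth.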

Assays:
Assay in all cases: inhibition of tumour cell growth, NCI panel, 48 h
NCI-H226 lung = tested on: NCI-H226 lung
DMS 114 small cell lung = tested on: DMS 114 small cell lung
A549 NSCLC = tested on: A549 NSCLC
UO-31 renal = tested on: UO-31 renal
UACC-257 melanoma = tested on: UACC-257 melanoma
SW-620 colon = tested on: SW-620 colon
SK-MEL-2 melanoma = tested on: SK-MEL-2 melanoma
COLO 205 colon = tested on: COLO 205 colon
UACC-62 melanoma = tested on: UACC-62 melanoma
NCI-H23 lung = tested on: NCI-H23 lung

Compound	TGI (NCI-H226 lung)	TGI (DMS 114 small cell lung)	TGI (A549 NSCLC)	TGI (UO-31 renal)	TGI (UACC-257 melanoma)	TGI (SW-620 colon)	TGI (SK-MEL-2 melanoma)	TGI (COLO 205 colon)	TGI (UACC-62 melanoma)	TGI (NCI-H23 lung)	GI50 (NCI-H226 lung)	GI50 (DMS 114 small cell lung)	GI50 (A549 NSCLC)	GI50 (UO-31 renal)	GI50 (UACC-257 melanoma)	GI50 (SW-620 colon)	GI50 (SK-MEL-2 melanoma)	GI50 (COLO 205 colon)	GI50 (UACC-62 melanoma)	GI50 (NCI-H23 lung)
Oc1c(Br)cc2c(c1Br)-c1c(c(O)c3c4c1=NCCC=4C=N3)NCC2	32.8 µM	9.76 µM	> 80.8 µM	39.8 µM	20 µM	50.1 µM	26.4 µM	11.7 µM	11.4 µM	30.3 µM	–	–	–	–	–	–	–	–	–	–
Brc1ccc2[nH]c3c(C4=NCCC4)nccc3c2c1	26.4 µM	> 57.8 µM	> 100 µM	37 µM	> 49.7 µM	> 86.6 µM	> 53.3 µM	> 59.6 µM	30.5 µM	> 79.7 µM	–	–	–	–	–	–	–	–	–	–
N#C[S-].[La+3].c1ccc(-c2ccccn2)nc1.c1ccc(-c2ccccn2)nc1.c1ccc(-c2ccccn2)nc1	67.9 µM	97.2 µM	> 100 µM	55.9 µM	65.2 µM	> 100 µM	53.6 µM	> 100 µM	50.3 µM	> 100 µM	19.5 µM	26.1 µM	28.6 µM	10.8 µM	24.3 µM	33.6 µM	21.5 µM	45.5 µM	19.5 µM	29.1 µM
